# Laboratory results published in US20220388962A1 (Biohaven Therapeutics Ltd., priority 2019, published 2022).
# Structures can show the parent of a compound that is named as a salt.
# Biological target: TDP-43 (Homo sapiens, UniProt Q13148)
# Test: TDP-43-DNA alpha-screen assay (bt-TAR-32 displacement)
# Type: binding
# Settings: bt-TAR-32 0.125 nM, 15 ng/ml TDP-43
# Method: Alpha-screen assay: Displacement of bt-TG6 binding was measured using AlphaScreen technology as previously described (Cassel, J. A. et al., Journal of Biomolecular Screening, 2010, 15, 1099-1106; Cassel, J. A.; Reitz, A. B. et al. The effects of small molecule inhibitors of nucleic acid binding to TDP-43 on TDP-43 metabolism and function. Biochimie, 2012, 94, 1974-1981).
# Test compounds were diluted in assay buffer (25 mM Tris [pH 7.4], 0.1% bovine serum albumin [BSA], 0.1% Triton X-100) at 4× the desired final concentration. Dilutions of test compound (50 to 0.02 μM in half-log dilutions with a no compound control well) were pre-incubated with TDP-43 (5 μl of 60 ng/mL) pre-bound to AlphaScreen® anti-GST acceptor beads (5 μl of 40 μg/mL) in 15 μl volume for 30 minutes at 23° C. with shaking. Assays were initiated by the addition of 5 μl bt-TAR-32 (5′-CTGCTTTTTGCCTGTACTGGGTCTCTGTGGTT-3′) 0.5 nM pre-bound to AlphaScreen® strepavidin donor beads (40 μg/mL). After incubation in the dark at 23° C. for 90 minutes with shaking, the AlphaScreen® signal was measured on a Synergy 2 plate reader (BioTek, Winooski, Vt.). IC50 values were determined from nonlinear regression fits of the data to a Sigmoidal dose response variable slope model in GraphPad Prism. Final assay conditions are 25 mM Tris [pH 7.4], 0.1% bovine serum albumin [BSA], 0.100 Triton X-100, 15 ng/ml TDP-43, 0.125 nM bTAR32, 10 ug/ml […].
# TDP-43, sequence (Q13148 whole entry): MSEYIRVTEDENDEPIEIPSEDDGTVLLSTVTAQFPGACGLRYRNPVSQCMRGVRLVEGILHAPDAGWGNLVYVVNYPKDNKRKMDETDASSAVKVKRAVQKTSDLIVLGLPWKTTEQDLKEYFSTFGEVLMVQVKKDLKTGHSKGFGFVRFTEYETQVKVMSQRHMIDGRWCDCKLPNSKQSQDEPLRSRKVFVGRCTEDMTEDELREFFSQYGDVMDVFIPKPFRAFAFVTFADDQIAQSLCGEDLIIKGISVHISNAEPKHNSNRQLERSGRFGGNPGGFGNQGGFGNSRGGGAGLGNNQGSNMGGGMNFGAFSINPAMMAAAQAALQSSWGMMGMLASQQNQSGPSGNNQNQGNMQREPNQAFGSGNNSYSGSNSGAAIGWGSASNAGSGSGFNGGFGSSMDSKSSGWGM
row,SMILES,IC50
1,[2H]C([2H])([2H])Oc1ccc(-c2cc(NCCCN(C)C)c3ccccc3n2)cc1 [Example 123],1210 nM
2,"COc1ccc(-c2cc(NCCCN(C)Cc3ccc(N(C)C)nc3)c3ccccc3n2)cc1 [Example 28, N^1-((6-(dimethylamino)pyridin-3-yl)methyl)-N^3-(2-(4-methoxyphenyl)quinolin-4-yl)-N^1-methylpropane-1,3-diamine]",1210 nM
3,"COc1ccc(-c2cc(NCCCNS(=O)(=O)c3ccc(-c4nn[nH]n4)cc3)c3ccccc3n2)cc1 [Example 49, N-(3-((2-(4-Methoxyphenyl)quinolin-4-yl)amino)propyl)-4-(2H-tetrazol-5-yl)benzene sulfonamide]",7200 nM
4,"COc1ccc(CN(C)CCCNc2cc(-c3ccc(OC)cc3)nc3ccccc23)cc1 [Example 60, N^1-(4-Methoxybenzyl)-N^3-(2-(4-methoxyphenyl)quinolin-4-yl)-N^1-methyl propane-1,3-diamine]",1970 nM
5,"COc1ccc(-c2cc(NCCCN3CCN(C)CC3)c3ccccc3n2)cc1 [Example 73, 2-(4-Methoxyphenyl)-N-(3-(4-methylpiperazin-1-yl)propyl)quinolin-4-amine]",1710 nM
6,NCCCNc1cc(-c2cnn(CCN3CCOCC3)c2)nc2ccccc12 [Example 134],2940 nM
7,COc1ccc(-c2cc(NCCCO)c3ccccc3n2)cc1 [Example 135],31700 nM
8,COc1ccc(-c2cc(NCCCN(C)C)c3ccccc3n2)cc1 [Example 132],2720 nM
9,COc1ccc(-c2cc(NCCCN(C)C)c3c(F)cccc3n2)cc1 [Example 133],2900 nM

# Stronger by IC50, values ahead:
row,IC50,SMILES
1,130 nM,"COc1ccc(-c2cc(NCCCN(CCCN(C)C)CC3CNC3)c3ccccc3n2)cc1 [Example 20, N^1-(Azetidin-3-ylmethyl)-N^1-(3-((2-(4-methoxyphenyl)quinolin-4-yl)amino)propyl)-N^3,N^3-dimethylpropane-1,3-diamine]"
2,50 nM,NCCCNc1cc(-c2ccc(N3CCNCC3)cc2)nc2ccccc12 [Example 86]
3,310 nM,CN(C)CCCNc1cc(-c2ccc(N3CCN(C)CC3)cc2)nc2ccccc12 [Example 110]
4,870 nM,NCCCNc1cc(C2=CCNCC2)nc2ccccc12 [Example 120]
5,230 nM,"COc1ccc(-c2cc(NCCCN3CCC4(CNC4)C3)c3ccccc3n2)cc1 [Example 42, N-(3-(2,6-Diazaspiro[3.4]octan-6-yl)propyl)-2-(4-methoxyphenyl)quinolin-4-amine]"
6,800 nM,CN(C)CCCNc1cc(-c2ccc3ncccc3c2)nc2ccccc12 [Example 118]
7,270 nM,COc1ccc(-c2cc(NCCCN(C)C)c3cc(OC)c(OC)cc3n2)cc1 [Example 108]
8,60 nM,CN(CCCN)CCCNc1cc(-c2cccc(N3CCNCC3)c2)nc2ccccc12 [Example 88]
9,80 nM,"COc1ccc(-c2cc(NCCCN(C)CCCN)c3ccccc3n2)cc1 [Example 3, N^1-(3-Aminopropyl)-N^3-(2-(4-methoxyphenyl)quinolin-4-yl)-N^1-methylpropane-1,3-diamine]"
10,100 nM,"COc1ccc(-c2cc(NCCCN(CC3CCNCC3)CC3CCNCC3)c3ccccc3n2)cc1 [Example 59, N-(3-(Bis((piperidin-4-yl)methyl)amino)propyl)-2-(4-methoxyphenyl) quinolin-4-amine]"
11,220 nM,"COc1ccc(-c2cc(NCCCN(C)CC(O)CN(C)C)c3ccccc3n2)cc1 (stereo not drawn) [Example 25, 1-(Dimethylamino)-3-((3-((2-(4-methoxyphenyl)quinolin-4-yl)-amino)propyl)(methyl)amino)propan-2-ol]"
12,360 nM,"COc1ccc(-c2cc(NCCCN3CCN(CCCN)CC3)c3ccccc3n2)cc1 [Example 46, N-(3-(4-(3-Aminopropyl)piperazin-1-yl)propyl)-2-(4-methoxyphenyl)quinolin-4-amine hydrochloride]"
13,80 nM,COc1ccc(-c2cc(NC3CCC(N)CC3)c3cc(OC)c(OC)cc3n2)cc1 (stereo not drawn) [Example 89]

# Same assay, conditions: side-by-side, three independent assays, bt-TAR32; average
row,"increase in potency versus (XXVIII), average",SMILES
1,14 ×,"COc1ccc(-c2cc(NCCCN(C)CCCN)c3ccccc3n2)cc1 [Example 3, N^1-(3-Aminopropyl)-N^3-(2-(4-methoxyphenyl)quinolin-4-yl)-N^1-methylpropane-1,3-diamine]"

# Same assay, conditions: side-by-side, three independent assays, bt-TAR32; range
row,increase in potency versus (XXVIII),SMILES
1,11-18 ×,"COc1ccc(-c2cc(NCCCN(C)CCCN)c3ccccc3n2)cc1 [Example 3, N^1-(3-Aminopropyl)-N^3-(2-(4-methoxyphenyl)quinolin-4-yl)-N^1-methylpropane-1,3-diamine]"
